Experimental data published in patent US10174016B2 (BAYER AKTIENGESELLSCHAFT, priority 2014, dated 2019).
Like-named read-outs stand apart in the source and are kept apart here.

Key:
[1] = target: human P2X3 receptor (Homo sapiens (Human), UniProt P56373); test: Intracellular calcium measurement (FLIPR, Fluo-4) of antagonist activity at human P2X3 receptors; format: cell-based; settings: read-out: hP2X3 IC50
Outline: (§1)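 Cells expressing human P2X3 or P2X2/3, loaded with Fluo-4, preincubated 30 min at 37° C. with compound (1% DMSO final), then challenged with α,β-Me-ATP at its EC80. Peak FLIPR fluorescence over 90 sec gave % response; IC50, maximal inhibition and Hill slope from triplicates.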

[2] = target: human P2X2/3 receptor (Homo sapiens (Human), UniProt P56373+Q9UBL9); test: Intracellular calcium measurement (FLIPR, Fluo-4) of antagonist activity at human P2X2/3 receptors; format: cell-based
Sequence of human P2X2/3 receptor (P56373 whole entry): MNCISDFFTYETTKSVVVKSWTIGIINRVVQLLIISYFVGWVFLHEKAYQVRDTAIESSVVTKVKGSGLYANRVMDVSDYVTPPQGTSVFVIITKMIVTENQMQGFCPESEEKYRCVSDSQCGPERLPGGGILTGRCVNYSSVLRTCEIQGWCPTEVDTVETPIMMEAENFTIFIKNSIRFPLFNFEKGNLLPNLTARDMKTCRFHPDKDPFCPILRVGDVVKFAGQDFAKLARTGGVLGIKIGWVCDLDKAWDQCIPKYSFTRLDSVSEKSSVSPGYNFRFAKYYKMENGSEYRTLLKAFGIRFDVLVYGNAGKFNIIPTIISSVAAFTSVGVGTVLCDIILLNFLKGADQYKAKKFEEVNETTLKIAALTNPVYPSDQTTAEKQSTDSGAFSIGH
Sequence of human P2X2/3 receptor (Q9UBL9 whole entry): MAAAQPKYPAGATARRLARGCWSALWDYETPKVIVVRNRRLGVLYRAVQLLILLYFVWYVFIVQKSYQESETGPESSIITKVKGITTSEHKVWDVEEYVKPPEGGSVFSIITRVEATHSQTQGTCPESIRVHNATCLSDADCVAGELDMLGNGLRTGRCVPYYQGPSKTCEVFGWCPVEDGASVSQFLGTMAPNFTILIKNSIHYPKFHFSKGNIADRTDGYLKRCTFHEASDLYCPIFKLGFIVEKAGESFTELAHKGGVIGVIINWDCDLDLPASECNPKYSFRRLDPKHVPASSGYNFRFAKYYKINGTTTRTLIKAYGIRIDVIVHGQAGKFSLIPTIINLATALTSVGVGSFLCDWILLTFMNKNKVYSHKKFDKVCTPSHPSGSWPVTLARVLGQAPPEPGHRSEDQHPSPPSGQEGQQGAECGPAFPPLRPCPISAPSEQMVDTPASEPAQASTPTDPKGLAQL
Outline: as §1

[3] = human P2X3, FLIPR calcium assay, agonist α,β-Me-ATP
[4] = human P2X2/3, FLIPR calcium assay, agonist α,β-Me-ATP, read-out: hP2X2/3 IC50

Sequence of human P2X3 receptor (P56373 whole entry): as the sequence (P56373 whole entry) above

| Structure (SMILES) | IC50 [1, 3] | IC50 [2, 4] | IC50 [1] | IC50 ([2]; hP2X2/3 IC50 (nM)) |
| --- | --- | --- | --- | --- |
| Cc1cnc(-c2cc(O[C@@H]3CCCN(C(=O)OC(C)(C)C)C3)cc(C(=O)N[C@H](C)c3cnc(C(F)(F)F)nc3)c2)s1 [Example 190, tert-Butyl (3R)-3-[3-(5-methyl-1,3-thiazol-2-yl)-5-({(1R)-1-[2-(trifluoromethyl)pyrimidin-5-yl]ethyl}carbamoyl)phenoxy]piperidine-1-carboxylate] | 7 nM | 207 nM |  |  |
| CC#CCOc1cc(C(=O)N[C@H](C)c2ccc(C)nn2)cc(-c2ncc(C)s2)c1 [Example 191, 3-(but-2-yn-1-yloxy)-N-[(1R)-1-(6-methylpyridazin-3-yl)ethyl]-5-(5-methyl-1,3-thiazol-2-yl) benzamide] | 61 nM | 364 nM |  |  |
| Cc1cnc(-c2cc(O[C@@H]3CN4CCC3CC4)cc(C(=O)N[C@H](C)c3cnc(C(F)(F)F)nc3)c2)s1 [Example 192, 3-[(3S)-1-azabicyclo[2.2.2]oct-3-yloxy]-5-(5-methyl-1,3-thiazol-2-yl)-N-{(1R)-1-[2-(trifluoromethyl)pyrimidin-5-yl]ethyl} benzamide] |  |  | 12 nM | 910 nM |
| Cc1cnc(-c2cc(OC3CCNCC3)cc(C(=O)N[C@H](C)c3ccc(C(F)(F)F)nn3)c2)s1 [Example 201, 3-(5-methyl-1,3-thiazol-2-yl)-5-(piperidin-4-yloxy)-N-{(1R)-1-[6-(trifluoromethyl)pyridazin-3-yl]ethyl}benzamide] | 16 nM | 1850 nM |  |  |
| Cc1cnc(-c2cc(OC3CC4(CNC4)C3)cc(C(=O)N[C@H](C)c3cnc(C(F)(F)F)nc3)c2)s1 [Example 202, 3-(2-azaspiro[3.3]hept-6-yloxy)-5-(5-methyl-1,3-thiazol-2-yl)-N-{(1R)-1-[2-(trifluoromethyl)pyrimidin-5-yl]ethyl} benzamide] | 42 nM | 1710 nM |  |  |
| Cc1cnc(-c2cc(O[C@H]3CCNC3)cc(C(=O)N[C@H](C)c3cnc(C(F)(F)F)nc3)c2)s1 [Example 203, 3-(5-methyl-1,3-thiazol-2-yl)-5-[(3S)-pyrrolidin-3-yloxy]-N-{(1R)-1-[2-(trifluoromethyl)pyrimidin-5-yl]ethyl} benzamide] | 36 nM | 1560 nM |  |  |
| Cc1cnc(-c2cc(OC3CCNCC3F)cc(C(=O)N[C@H](C)c3cnc(C(F)(F)F)nc3)c2)s1 (stereo partly drawn) [Example 204, 3-{[3-fluoropiperidin-4-yl]oxy}-5-(5-methyl-1,3-thiazol-2-yl)-N-{(1R)-1-[2-(trifluoromethyl)pyrimidin-5-yl]ethyl} benzamide] | 7 nM | 82 nM |  |  |
| Cc1cnc(-c2cc(OC3CC4CC3CN4C)cc(C(=O)N[C@H](C)c3cnc(C(F)(F)F)nc3)c2)s1 (stereo partly drawn) [Example 209, 3-{[2-methyl-2-azabicyclo[2.2.1]hept-5-yl]oxy}-5-(5-methyl-1,3-thiazol-2-yl)-N-{(1R)-1-[2-(trifluoromethyl)pyrimidin-5-yl]ethyl}benzamide] | 30 nM | 1470 nM |  |  |
| Cc1cnc(-c2cc(OC3CCN(C)CC3)cc(C(=O)N[C@H](C)c3ccc(C(F)(F)F)nn3)c2)s1 [Example 210, 3-[(1-methylpiperidin-4-yl)oxy]-5-(5-methyl-1,3-thiazol-2-yl)-N-{(1R)-1-[6-(trifluoromethyl)pyridazin-3-yl]ethyl} benzamide] | 12 nM | 1010 nM |  |  |
| Cc1cnc(-c2cc(OC3CN(C)C3)cc(C(=O)N[C@H](C)c3ccc(C(F)(F)F)nn3)c2)s1 [Example 211, 3-[(1-methylazetidin-3-yl)oxy]-5-(5-methyl-1,3-thiazol-2-yl)-N-{(1R)-1-[6-(trifluoromethyl)pyridazin-3-yl]ethyl} benzamide] | 395 nM | ≥ 10000 nM |  |  |
| Cc1cnc(-c2cc(OC3CCN(C)CC3F)cc(C(=O)N[C@H](C)c3cnc(C(F)(F)F)nc3)c2)s1 (stereo partly drawn) [Example 212, 3-[(3-fluoro-1-methylpiperidin-4-yl)oxy]-5-(5-methyl-1,3-thiazol-2-yl)-N-{(1R)-1-[2-(trifluoromethyl)pyrimidin-5-yl]ethyl} benzamide] | 4 nM | 46 nM |  |  |
| Cc1cnc(-c2cc(OCC3(N(C)C)CC3)cc(C(=O)N[C@H](C)c3cnc(C(F)(F)F)nc3)c2)s1 [Example 213, 3-{[1-(dimethylamino)cyclopropyl]methoxy}-5-(5-methyl-1,3-thiazol-2-yl)-N-{(1R)-1-[2-(trifluoromethyl)pyrimidin-5-yl]ethyl} benzamide] | 5 nM | 81 nM |  |  |
| Cc1cnc(-c2cc(OC3CC4(C3)CN(C)C4)cc(C(=O)N[C@H](C)c3cnc(C(F)(F)F)nc3)c2)s1 [Example 214, 3-[(2-methyl-2-azaspiro [3.3]hept-6-yl)oxy]-5-(5-methyl-1,3-thiazol-2-yl)-N-{(1R)-1-[2-(trifluoromethyl)pyrimidin-5-yl]ethyl} benzamide] | 47 nM | 3390 nM |  |  |
| Cc1cnc(-c2cc(OC3CCN(C)CC3)cc(C(=O)N[C@H](C)c3cnc(C(F)F)nc3)c2)s1 [Example 215] |  | 992 nM | 16 nM |  |
| Cc1cnc(-c2cc(O[C@H]3C[C@H]4CC[C@@H](C3)N4C)cc(C(=O)N[C@H](C)c3cnc(C(F)(F)F)nc3)c2)s1 [Example 216, 3-{[(3-endo)-8-methyl-8-azabicyclo[3.2.1]oct-3-yl]oxy}-5-(5-methyl-1,3-thiazol-2-yl)-N-{(1R)-1-[2-(trifluoromethyl)pyrimidin-5-yl]ethyl} benzamide] | 14 nM | 928 nM |  |  |
| Cc1cnc(-c2cc(O[C@@H]3C[C@H]4CC[C@@H](C3)N4C)cc(C(=O)N[C@H](C)c3cnc(C(F)(F)F)nc3)c2)s1 [Example 217, 3-{[(3-exo)-8-methyl-8-azabicyclo[3.2.1]oct-3-yl]oxy}-5-(5-methyl-1,3-thiazol-2-yl)-N-{(1R)-1-[2-(trifluoromethyl)pyrimidin-5-yl]ethyl} benzamide] | 25 nM | 1750 nM |  |  |
| Cc1cnc(-c2cc(O[C@@H]3CC[C@H]4[C@H]3OCCN4C)cc(C(=O)N[C@H](C)c3cnc(C(F)(F)F)nc3)c2)s1 [Example 218, 3-{[(4aS,7R, 7aR)-4-methyloctahydro-cyclopenta [b][1,4]oxazin-7-yl]oxy}-5-(5-methyl-1,3-thiazol-2-yl)-N-{(1R)-1-[2-(trifluoromethyl)pyrimidin-5-yl]ethyl} benzamide] | 7 nM | 281 nM |  |  |
| Cc1cnc(-c2cc(O[C@H]3CC[C@H]4[C@H]3OCCN4C)cc(C(=O)N[C@H](C)c3cnc(C(F)(F)F)nc3)c2)s1 [Example 219, 3-{[(4aS,7S, 7aR)-4-methylocta-hydro-cyclopenta[b] [1,4]oxazin-7-yl]oxy}-5-(5-methyl-1,3-thiazol-2-yl)-N-{(1R)-1-[2-(trifluoromethyl)pyrimidin-5-yl]ethyl} benzamide] | 2 nM | 199 nM |  |  |
| Cc1cnc(-c2cc(OC3CCN(C(C)C)CC3)cc(C(=O)N[C@H](C)c3ccc(C(F)(F)F)nn3)c2)s1 [Example 224, 3-(5-Methyl-1,3-thiazol-2-yl)-5-{[1-(propan-2-yl)piperidin-4-yl]oxy}-N-{(1R)-1-[6-(trifluoromethyl)pyridazin-3-yl]ethyl}benzamide] | 9 nM | 569 nM |  |  |
| Cc1cnc(-c2cc(O[C@H]3CCN(C(C)C)C3)cc(C(=O)N[C@H](C)c3cnc(C(F)(F)F)nc3)c2)s1 [Example 225, 3-(5-methyl-1,3-thiazol-2-yl)-5-{[(3S)-1-(propan-2-yl)pyrrolidin-3-yl]oxy}-N-{(1R)-1-[2-(trifluoromethyl)pyrimidin-5-yl]ethyl}benzamide] | 16 nM | 1140 nM |  |  |
| COC(=O)N1CCC(Oc2cc(C(=O)N[C@H](C)c3cnc(C(F)(F)F)nc3)cc(-c3ncc(C)s3)c2)CC1 [Example 226, Methyl 4-[3-(5-methyl-1,3-thiazol-2-yl)-5-({(1R)-1-[2-(trifluoromethyl)pyrimidin-5-yl]ethyl}carbamoyl)phenoxy]piperidine-1-carboxylate] | 6 nM | 59 nM |  |  |
| CCOC(=O)N1CCC(Oc2cc(C(=O)N[C@H](C)c3cnc(C(F)(F)F)nc3)cc(-c3ncc(C)s3)c2)CC1 [Example 227, Ethyl 4-[3-(5-methyl-1,3-thiazol-2-yl)-5-({(1R)-1-[2-(trifluoromethyl)pyrimidin-5-yl]ethyl}carbamoyl)phenoxy]piperidine-1-carboxylate] | 13 nM | 161 nM |  |  |
| CCOC(=O)N1CC[C@H](Oc2cc(C(=O)N[C@H](C)c3cnc(C(F)(F)F)nc3)cc(-c3ncc(C)s3)c2)C1 [Example 228, Ethyl (3S)-3-[3-(5-methyl-1,3-thiazol-2-yl)-5-({(1R)-1-[2-(trifluoromethyl)pyrimidin-5-yl]ethyl}carbamoyl)phenoxy]pyrrolidine-1-carboxylate] | 5 nM | 54 nM |  |  |
| Cc1cnc(-c2cc(OC3CN(C(C)C)C3)cc(C(=O)N[C@H](C)c3cnc(C(F)(F)F)nc3)c2)s1 [Example 229, 3-(5-Methyl-1,3-thiazol-2-yl)-5-{[1-(propan-2-yl)azetidin-3-yl]oxy}-N-{(1R)-1-[2-(trifluoromethyl)pyrimidin-5-yl]ethyl}benzamide] | 44 nM | 2280 nM |  |  |
| Cc1cnc(-c2cc(OC3CCS(=O)(=O)CC3)cc(C(=O)N[C@H](C)c3cnc(C(F)(F)F)nc3)c2)s1 [Example 232, 3-[(1,1-dioxidotetrahydro-2H-thiopyran-4-yl)oxy]-5-(5-methyl-1,3-thiazol-2-yl)-N-{(1R)-1-[2-(trifluoromethyl)pyrimidin-5-yl]ethyl}benzamide] | 13 nM | 759 nM |  |  |
| Cc1cnc(-c2cc(OC3CCS(=O)(=O)CC3)cc(C(=O)N[C@H](C)c3ccc(C(F)(F)F)nc3)c2)s1 [Example 233, 3-[(1,1-dioxidotetrahydro-2H-thiopyran-4-yl)oxy]-5-(5-methyl-1,3-thiazol-2-yl)-N-{(1R)-1-[6-(trifluoromethyl)pyridin-3-yl]ethyl}benzamide] | 16 nM | 753 nM |  |  |
